# Measurements published in PubChem BioAssay AID2060498 (Molecular Pharmacology Branch, DTP, NCI, 2025).
# Where “and” joins values, the source holds several entries; their conditions need not be identical. Identical values can stand only once.
# Test system: 171881-019-R-J1-PDC tumor spheroids, viability
# Test: Anticancer human tumor 171881-019-R-J1-PDC patient-derived invasive breast carcinoma cell line growth inhibition [GQUAD]
# Settings: spheroids with HUVEC and MSC; for viability, T/C: stronger effect = lower value
# Text: DNA G-quadruplex Stabilizer Agents in Combinations in Complex Spheroids
# A high-throughput screen of multi-cell type tumor spheroids was designed to identify active combinations of DNA G-quadruplex stabilizer agents and targeted small molecules. Complex spheroids include a stromal component modeled by human endothelial cells (HUVEC) and fibroblasts modeled by human mesenchymal stem cells (MSCs). The concentration ranges selected for each drug and investigational agent were based upon clinically achievable concentrations if the clinical Cmax of the agent was known.
# Compounds. The drugs and investigational agents: pidnarulex (CX-5461; NSC782164), APTO-253 (NSC789042), BRACO-19 (NSC847499), peposertib (NSC802822), ceralasertib (NSC780249), elimusertib (NSC800525), camonsertib (NSC841442), AZD-1390 (NSC803789), olaparib (NSC753686), talazoparib (NSC767125), ART-558 (NSC835418), sotorasib (NSC818433), MRTX-1133 (NSC836407), SN-38 (NSC673596), topotecan (NSC609699), etoposide (NSC141540), doxorubicin (NSC123127), gemcitabine (NSC613327), 5-fluorouracil (NSC19893), paclitaxel (NSC125973), vemurafenib (NSC761431), panobinostat (NSC761190), R-306465 (JNJ-16241199; NSC773264), adavosertib (NSC754352), TP-3654 (NSC805149), carboplatin (NSC241240), KSQ-4279 (NSC840948), and staurosporine (NSC755774) were obtained from the National Cancer Institute (NCI) Developmental Therapeutics Program Chemical Repository (34). The FDA-approved anticancer drug set is available from the NCI Developmental Therapeutics Program. […] The stock solutions were prepared in dimethyl sulfoxide (DMSO, Sigma-Aldrich, St. Louis, MO, cat. D2650) at 800-fold the tested concentration and stored at -70 degrees C prior to their use. All drugs and investigational agents were tested over a range starting from a high concentration at or near the clinical Cmax and decreasing in half-log increments. If the clinical Cmax for an agent had not been determined, the highest concentration tested was 10 microM.
# 2.3 Cell Culture. All cells were maintained in an incubator at 37 degrees C and 5% CO2 with 95% humidity. The PDC lines were cultured according to standard operating procedures established by the NCI PDMR. All PDCs were thawed and cultured in Matrigel-coated flasks prepared with a working solution of 1X Ham's F-12 nutrient mix, without supplementation (Invitrogen, cat. 11765054), 100 U/mL penicillin-streptomycin (Invitrogen, cat. 15140122), and 2.5% Matrigel (Corning Inc., cat. 354248) for the first three passages. The 857933-349-R-J2-PDC line was cultured in 6C/Colon 1B media, which includes advanced DMEM/F-12 (Thermo Fisher Scientific, cat. 12634028), 10 mM HEPES (Thermo Fisher Scientific, cat. 15630080), 1X GlutaMAX supplement (Thermo Fisher Scientific, cat. 35050061), 0.1 mg/mL primocin (InvivoGen, cat. ant-pm-2), 10% defined fetal bovine serum, heat inactivated (HyClone Laboratories Inc., cat. SH30070.03HI), 50% L-WRN conditioned media (ATCC, cat. CRL-3276), 1.25 mM N-Acetyl-L-cysteine (Sigma-Aldrich, cat. A9165), 10 mM nicotinamide (Sigma-Aldrich, cat. N0636), 1X B-27 supplement (Thermo Fisher Scientific, cat. 17504044), 1X N-2 supplement (Thermo Fisher Scientific, cat. 17502048), 10 microM Y-27632 dihydrochloride (Tocris Bioscience, cat. 1254), and 50 ng/mL human EGF recombinant protein (Thermo Fisher Scientific, cat. PHG0311). The 485176-168-R4-J1-PDC line was cultured in Panc media, which includes all 6C/Colon 1B media components plus 100 ng/mL human FGF-10 (Thermo Fisher Scientific, cat. 100-26), 500 nM SB-431542 (Selleckchem, cat. S1067), and gastrin (Tocris, cat. 3006).
# […]
# [1] = compound alone, run of 02/20/2024
# 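Further: spheroids exposed to compounds for 7 days.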
# 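Wherever viability, T/C is given: 100% = DMSO vehicle control viability.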
SMILES,IC50 (curve of compound),IC50 [1],"IC50 (compound alone, run of 02/26/2024)","viability, T/C (compound 0.0316 µM)","viability, T/C (compound 0.1 µM)","viability, T/C (compound 0.316 µM)","viability, T/C (compound 1 µM)","viability, T/C (compound 3.16 µM)","viability, T/C (compound 10 µM)","viability, T/C (compound 0.000999 µM)","viability, T/C (compound 0.00316 µM)","viability, T/C (compound 0.00999 µM)","viability, T/C (compound 0.0999 µM)"
COc1cccc2c1C(=O)c1c(O)c3c(c(O)c1C2=O)CC(O)(C(=O)CO)CC3OC1CC(N)C(O)C(C)O1 (centres undefined),138 nM and 241 nM and 128 nM,,,90.7% and 94.5% and 84.5%,52% and 64.5% and 52.4%,39.5% and 50.2% and 35.5%,13.5% and 20% and 15%,0.2% and 0.32% and 0.18%,0.4% and 0.19% and 0.39%,,,,
Cc1cnc(CNC(=O)c2c(=O)c3ccc(N4CCCN(C)CC4)nc3n3c2sc2ccccc23)cn1,,> 10000 nM,,94.3% [middle of 12 runs],85.4% [middle of 12 runs],76% [middle of 12 runs],70.7% [middle of 11 runs],65% [middle of 12 runs],62.7% [middle of 12 runs],,,,
Cn1ncnc1[C@H]1c2n[nH]c(=O)c3cc(F)cc(c23)N[C@@H]1c1ccc(F)cc1,> 316 nM,,,86.3% and 102% and 97.5%,,94.1% and 80.5% and 73.1%,,,,108% and 102% and 105%,94.8% and 103% and 86.1%,95% and 95.7% and 88.2%,88.8% and 91.6% and 81.5%
O=C(NO)c1cnc(N2CCN(S(=O)(=O)c3ccc4ccccc4c3)CC2)nc1,255 nM and 224 nM and 201 nM,,,77.1% and 89.5% and 81.1%,74% and 76.3% and 64.2%,44.3% and 39.6% and 41.4%,0.86% and 0.61% and 2.4%,0.14% and 0.11% and 0.19%,0.33% and 0.21% and 0.18%,,,,
O=C(c1cc(Cc2n[nH]c(=O)c3ccccc23)ccc1F)N1CCN(C(=O)C2CC2)CC1,> 10000 nM,,,96.1% and 101% and 87.5%,94.4% and 97.5% and 96.8%,94.5% and 105% and 103%,103% and 101% and 96.6%,100% and 97.8% and 95.5%,89.8% and 88.3% and 89.4%,,,,

# Continued, in another order:
IC50 (curve of compound),IC50 [1],"IC50 (compound alone, run of 02/26/2024)",SMILES,"viability, T/C (compound 0.0316 µM)","viability, T/C (compound 0.1 µM)","viability, T/C (compound 0.316 µM)","viability, T/C (compound 1 µM)","viability, T/C (compound 3.16 µM)","viability, T/C (compound 10 µM)","viability, T/C (compound 0.000999 µM)","viability, T/C (compound 0.00316 µM)","viability, T/C (compound 0.00999 µM)","viability, T/C (compound 0.0999 µM)"
956 nM and 784 nM and 5260 nM,,,COc1cc(C2c3cc4c(cc3C(OC3OC5COC(C)OC5C(O)C3O)C3COC(=O)C23)OCO4)cc(OC)c1O (centres undefined),96.6% and 95.8% and 105%,89.9% and 93.5% and 94.8%,74.2% and 73.8% and 92.6%,47.9% and 42.6% and 70.5%,32.8% and 30.4% and 55.1%,23.5% and 21.9% and 44.2%,,,,
838 nM and 629 nM and 684 nM,,,COc1ccc([C@@H](O)c2cc(-c3ncnc4cc(N5CCOCC5)ccc34)c(F)cc2Cl)nn1,82.4% and 94.3% and 101%,85.4% and 83% and 76.8%,72.4% and 72.6% and 69.2%,46.7% and 35.9% and 46.9%,13.4% and 7.19% and 13.3%,5.21% and 1.35% and 5.78%,,,,
> 10000 nM,,,COc1ncnc(C2CC2)c1-c1ncc2cnn(Cc3ccc(-c4nc(C(F)(F)F)cn4C(C)C)cc3)c2n1,94% and 84.8% and 93.3%,89.3% and 100% and 93.7%,85.2% and 92.9% and 94%,100% and 95.7% and 106%,91.3% and 98.7% and 97.9%,76.1% and 90.1% and 79.6%,,,,
,2.63 µM [middle of 8 runs],1.65 µM [middle of 4 runs],Cc1[nH]c2ccc(F)cc2c1-c1nc2c3cccnc3c3ncccc3c2[nH]1,101% [middle of 12 runs],103% [middle of 12 runs],,,,54.6% [middle of 12 runs],,,,
58.7 nM and 59.5 nM and 58.2 nM,,,Cc1[nH]c2ccccc2c1CCNCc1ccc(/C=C/C(=O)NO)cc1,83.3% and 83.6% and 75.6%,,0.4% and 0.47% and 1.04%,,,,93.1% and 97% and 99.3%,90.7% and 88% and 95.2%,91.3% and 87.6% and 84.2%,21.4% and 22.6% and 29%
> 10000 nM,,,Cc1cccc(N(C)C(=O)C2C(O)CCN2c2nc(C)cc(C(F)(F)F)c2C#N)c1 (centres undefined),90.3% and 105% and 91.7%,101% and 88.7% and 99.2%,87.6% and 91.7% and 98.8%,104% and 95.4% and 100%,98.1% and 85.9% and 89.5%,84.6% and 77.5% and 71.8%,,,,
< 31.6 nM,,,Nc1ccn(C2OC(CO)C(O)C2(F)F)c(=O)n1 (centres undefined),24% and 35.9% and 25.5%,30.8% and 38.8% and 28.2%,39.4% and 47.6% and 37.4%,37.8% and 48.4% and 37.6%,35.4% and 45.9% and 35.1%,31.4% (2×) and 44%,,,,
> 10000 nM,,,O=c1[nH]cc(F)c(=O)[nH]1,82.5% and 74.1% and 82.2%,61.5% and 60.6% and 75.6%,61.1% and 61.8% and 73.7%,57.7% and 55.4% and 66.4%,51.6% and 51.2% and 63.5%,52.5% and 54.1% and 66.9%,,,,
